Here are results for 16 molecules from patent US11351178B2, “Selective HDAC6 inhibitors” (ITALFARMACO S.P.A., priority 2017, dated 2022).

One data set in a line: Stability in rat plasma. The data set is classed as in vitro ADME. As to conditions: after 4 hours, 37° C. An outline of the steps: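 Compounds incubated at 37° C in rat or human plasma at 50 μM (UV/HPLC) or 1 or 2 μM (LC-MS/MS) for 0–4 h. Reaction stopped with acidified acetonitrile on ice; percent remaining versus initial amount and plasma half-life calculated.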
Data set [1] deals with B 697 promyelocytic cell line. Kind of data set: Cytotoxicity on 697 cell line (CellTiter 96). Format: cell-based. As to conditions: 72 hours incubation, read-out: 697 TOXICITY
Here is the method:
(§1) Cytotoxic activity was evaluated on B 697 […] cell line for all synthesized compounds and on peripheral blood mononuclear cells (PBMCs) for compounds showing a good potency/selectivity profile.
(§2) Cells were seeded in plate (2×10^4 cells per well for 697, 5×10^5 cells per well for PBMCs). The test compounds (concentrations from 1.5 nM to 10000 nM for PBMCs and from 1 nM to 10000 nM for 697) were added after 24 hours and incubated 72 hours. The molecules cytotoxic activity was evaluated using CellTiter 96© Aqueous One Solution Cell Proliferation Assay (Promega), which measures the mitochondria function, following the manufacturer's instructions.

The nature of data set [2]: Stability to Phase I metabolism in rat S9 liver fraction. The data set is classed as in vitro ADME. Particulars: after 90 min, 37° C. An outline of the steps:
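Phase I stability in human and rat hepatic S9 at 37 °C, sampled up to 90 min. Samples were stopped with acidified acetonitrile on ice, then quantified by HPLC-UV or LC-MS/MS.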

The next data set concerns the target T1, recombinant human HDAC6 (Homo sapiens, UniProt Q9UBN7).
T1 sequence (Q9UBN7 1-1215): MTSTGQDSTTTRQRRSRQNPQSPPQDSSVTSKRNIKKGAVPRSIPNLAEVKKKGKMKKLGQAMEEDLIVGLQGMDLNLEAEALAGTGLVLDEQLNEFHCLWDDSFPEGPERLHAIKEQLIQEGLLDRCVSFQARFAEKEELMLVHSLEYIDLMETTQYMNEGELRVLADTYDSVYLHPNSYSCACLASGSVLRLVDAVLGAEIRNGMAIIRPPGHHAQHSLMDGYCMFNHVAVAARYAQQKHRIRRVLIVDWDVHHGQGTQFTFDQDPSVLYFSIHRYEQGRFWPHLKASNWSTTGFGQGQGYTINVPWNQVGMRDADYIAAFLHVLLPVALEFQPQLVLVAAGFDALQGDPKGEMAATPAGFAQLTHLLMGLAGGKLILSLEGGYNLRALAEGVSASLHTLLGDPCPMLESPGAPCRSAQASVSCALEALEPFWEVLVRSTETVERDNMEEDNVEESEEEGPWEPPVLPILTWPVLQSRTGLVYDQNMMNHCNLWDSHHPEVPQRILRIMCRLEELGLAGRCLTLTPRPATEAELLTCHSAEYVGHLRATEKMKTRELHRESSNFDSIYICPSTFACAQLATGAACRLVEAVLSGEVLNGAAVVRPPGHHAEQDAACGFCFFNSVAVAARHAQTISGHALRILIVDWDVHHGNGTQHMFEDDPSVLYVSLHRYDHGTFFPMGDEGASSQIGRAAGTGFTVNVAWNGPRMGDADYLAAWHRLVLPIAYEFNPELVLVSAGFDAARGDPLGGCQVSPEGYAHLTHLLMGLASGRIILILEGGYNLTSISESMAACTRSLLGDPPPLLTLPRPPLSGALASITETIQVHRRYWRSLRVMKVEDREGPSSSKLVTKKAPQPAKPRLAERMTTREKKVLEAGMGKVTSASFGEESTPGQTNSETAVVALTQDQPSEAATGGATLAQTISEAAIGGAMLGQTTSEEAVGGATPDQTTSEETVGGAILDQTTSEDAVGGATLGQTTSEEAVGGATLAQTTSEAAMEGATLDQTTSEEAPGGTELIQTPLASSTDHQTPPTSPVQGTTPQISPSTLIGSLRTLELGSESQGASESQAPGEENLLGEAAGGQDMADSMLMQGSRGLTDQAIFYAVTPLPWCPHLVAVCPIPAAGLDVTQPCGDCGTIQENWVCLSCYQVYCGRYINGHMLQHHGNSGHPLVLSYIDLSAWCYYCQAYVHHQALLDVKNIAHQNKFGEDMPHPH
Put plainly: Enzymatic screening on recombinant human HDAC6. The data set is classed as biochemical. As to conditions: Table 2; read-out: HDAC6 IC50. An outline of the steps: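 Substrates were Fluor de Lys, Fluor de Lys-Green or trifluoroacetyl-L-lysine, in 25 mM Tris-HCl pH 8, 130 mM NaCl, 0.05% Tween-20, 10% glycerol. They were added after isoform-dependent preincubation of recombinant human enzyme with compound at 30 °C, and the reaction also ran at 30 °C.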

Data set [3] has as its system peripheral blood mononuclear cells (PBMCs). Kind of data set: Cytotoxicity on PBMCs (CellTiter 96). Format: cell-based. Particulars: PBMC, 72 h; read-out: PBMC TOXICITY (72 h). As for the experimental part:
as §1, §2

As to `Cc1nc(N2CCOCC2)sc1-c1nnc(Cc2ccc(C(=O)NO)cc2)o1` [comp. 75, 4-[[5-(4-methyl-2-morpholino-thiazol-5-yl)-1,3,4-oxadiazol-2-yl]methyl]benzenecarbohydroxamic acid], the “residual percentage in rat plasma” value in the data set “Stability in rat plasma” turned out to be 116%. In addition, the values for the IC50 (in data set [1]; on recombinant human HDAC6; in data set [3]) were 1200 nM, 4 nM and 514 nM, respectively. The “residual percentage in rat S9 fraction” value in data set [2] is reported as 75%.

As for `Cn1c(Sc2c(F)cc(C(=O)NO)cc2F)nnc1C(C)(C)c1cccnc1` [comp. 186, 3,5-difluoro-4-[[4-methyl-5-[1-methyl-1-(3-pyridyl)ethyl]-1,2,4-triazol-3-yl]sulfanyl]benzenecarbohydroxamic acid], the “residual percentage in rat plasma” value in “Stability in rat plasma” was found to be 75%. Further, the IC50 was 10400 nM in data set [1], 23 nM at recombinant human HDAC6 and ≥ 100000 nM in data set [3]. Moreover, the “residual percentage in rat S9 fraction” value in data set [2] was found to be 9%.

As for `O=C(NO)c1cc(F)c(Cn2nnnc2-c2ccco2)c(F)c1` [comp. 92, 3,5-difluoro-4-[[5-(2-furyl)tetrazol-1-yl]methyl]benzenecarbohydroxamic acid], in “Stability in rat plasma”, the “residual percentage in rat plasma” value is recorded as 79%. In addition, the IC50 in data set [1] was > 10000 nM; at recombinant human HDAC6, 27 nM; in data set [3], > 10000 nM. Further, the “residual percentage in rat S9 fraction” value in data set [2] worked out at 71%.

For `Cn1c(Sc2c(F)cc(C(=O)NO)cc2F)nnc1-c1ccc(CN2CCCCC2)cc1` [comp. 16, 3,5-difluoro-N-hydroxy-4-((4-methyl-5-(4-(piperidin-1-ylmethyl)phenyl)-4H-1,2,4-triazol-3-yl)thio)benzamide], the “residual percentage in rat plasma” value in the data set “Stability in rat plasma” turned out to be 75%. Further, the values for the IC50 (in data set [1]; on recombinant human HDAC6; in data set [3]) were 7880 nM, 5 nM and 7500 nM, respectively. Besides, in data set [2], the “residual percentage in rat S9 fraction” value was determined as 74%.

As to `Cc1nc(N2CCOCC2)sc1-c1nnc(Sc2c(F)cc(C(=O)NO)cc2F)n1C` [comp. 9, 3,5-difluoro-N-hydroxy-4-((4-methyl-5-(4-methyl-2-morpholinothiazo-5-yl)-4H-1,2,4-triazol-3-yl)thio)benzamide], in “Stability in rat plasma”, the “residual percentage in rat plasma” value stood at 106%. Moreover, the IC50 in data set [1] was > 10000 nM; at recombinant human HDAC6 it was 79 nM; in data set [3] it was > 10000 nM. Further, the “residual percentage in rat S9 fraction” value in data set [2] was found to be 75%.

For the molecule `O=C(NO)c1ccc(Cn2nnc(-c3nccc4ccccc34)n2)cc1` [comp. 87, 4-[[5-(1-isoquinolyl)tetrazol-2-yl]methyl]benzenecarbohydroxamic acid], the “residual percentage in rat plasma” value in “Stability in rat plasma” is recorded as 0%. The IC50 turned out to be 6660 nM in data set [1], 20 nM at recombinant human HDAC6 and 6000 nM in data set [3]. For the same molecule, the “residual percentage in rat S9 fraction” value in data set [2] came to 77%.

Consider `Cn1c(Sc2c(F)cc(C(=O)NO)cc2F)nnc1C1(c2cccnc2)CC1` [comp. 178, 3,5-difluoro-4-[[4-methyl-5-[1-(3-pyridyl)cyclopropyl]-1,2,4-triazol-3-yl]sulfanyl]benzenecarbohydroxamic acid], for which the IC50 is 50300 nM in data set [1], 23 nM on recombinant human HDAC6 and > 10000 nM in data set [3].

`CN(Cc1ccccc1)Cc1cccc(-c2nnc(Sc3c(F)cc(C(=O)NO)cc3F)n2C)c1` [comp. 184, 4-[[5-[3-[[benzyl(methyl)amino]methyl]phenyl]-4-methyl-1,2,4-triazol-3-yl]sulfanyl]-3,5-difluoro-benzenecarbohydroxamic acid]: the IC50 in data set [1] is 14700 nM; on recombinant human HDAC6 it was 17 nM; in data set [3], ≥ 100000 nM.

For `Cn1c(Sc2c(F)cc(C(=O)NO)cc2F)nnc1-c1c(F)cccc1F` [comp. 165, 4-[[5-(2,6-difluorophenyl)-4-methyl-1,2,4-triazol-3-yl]sulfanyl]-3,5-difluoro-benzenecarbohydroxamic acid], the IC50 is 55300 nM in data set [1], 8 nM on recombinant human HDAC6 and > 10000 nM in data set [3].

Turning to `O=C(NO)c1ccc(Cn2nnnc2-c2ccc3ccccc3n2)cc1` [comp. 91, 4-[[5-(2-quinolyl)tetrazol-1-yl]methyl]benzenecarbohydroxamic acid], the “residual percentage in rat plasma” value in the data set “Stability in rat plasma” stood at 93%. The IC50 in data set [1] amounted to 783 nM; at recombinant human HDAC6, 3 nM; in data set [3], 812 nM. The “residual percentage in rat S9 fraction” value in data set [2] came to 8%.

Turning to `COC(=O)c1ccc(-c2nnn(Cc3ccc(C(=O)NO)cc3)n2)nc1` [comp. 156, methyl 6-[2-[[4-(hydroxycarbamoyl)phenyl]methyl]tetrazol-5-yl]pyridine-3-carboxylate], the IC50 in data set [1] was 1570 nM; at recombinant human HDAC6 it was 61 nM; in data set [3] it was > 10000 nM.

With `Nc1ccc(-c2nnnn2Cc2c(F)cc(C(=O)NO)cc2F)cc1` [comp. 172, 4-[[5-(4-aminophenyl)tetrazol-1-yl]methyl]-3,5-difluoro-benzenecarbohydroxamic acid], the IC50 was 61400 nM in data set [1], 8 nM on recombinant human HDAC6 and > 10000 nM in data set [3].

On to `NCc1ccc(-c2nnn(Cc3ccc(C(=O)NO)cc3)n2)cc1` [comp. 173, 4-[[5-[4-(aminomethyl)phenyl]tetrazol-2-yl]methyl]benzenecarbohydroxamic acid], for which the IC50 was found to be 1890 nM in data set [1], 2 nM on recombinant human HDAC6 and 948 nM in data set [3].

Take `O=C(NO)c1cc(F)c(Cn2nnc(-c3nccc4ccccc34)n2)c(F)c1` [comp. 93, 3,5-difluoro-4-[[5-(1-isoquinolyl)tetrazol-2-yl]methyl]benzenecarbohydroxamic acid]: the “residual percentage in rat plasma” value in “Stability in rat plasma” is listed as 10%. Besides, the IC50 was > 10000 nM in data set [1], 22 nM at recombinant human HDAC6 and > 10000 nM in data set [3]. In addition, in data set [2], the “residual percentage in rat S9 fraction” value is reported as 53%.

As to `Cn1c(Cc2cccc3cccnc23)nnc1Sc1c(F)cc(C(=O)NO)cc1F` [comp. 164, 3,5-difluoro-4-[[4-methyl-5-(8-quinolylmethyl)-1,2,4-triazol-3-yl]sulfanyl]benzenecarbohydroxamic acid], the IC50 worked out at 1400 nM in data set [1], 45 nM on recombinant human HDAC6 and 661 nM in data set [3].

As to `Nc1ccc(-c2nnn(Cc3ccc(C(=O)NO)cc3)n2)cc1` [comp. 169, 4-[[5-(4-aminophenyl)tetrazol-2-yl]methyl]benzenecarbohydroxamic acid], the “residual percentage in rat plasma” value in the data set “Stability in rat plasma” stood at 68%. Moreover, the IC50 was determined as 271 nM in data set [1], 1 nM at recombinant human HDAC6 and 24 nM in data set [3]. The “residual percentage in rat S9 fraction” value in data set [2] turned out to be 44%.
